Assay results as given in patent publication US12497365B2, “4-pyridinyl formamide compound or derivative thereof, preparation method therefor, herbicidal composition and use thereof” (Qingdao Kingagroot Chemical Compound Co., Ltd., priority 2019, dated 2025).

What was measured:
[1] = system: Echinochloa crusgalli, Scirpus juncoides, Bidens tripartita L., Sagittaria trifolia, Monochoria vaginalis; experiment: Weed control effect evaluation in rice field; type: in vivo, rice field weeds; details: weed seeds collected from Heilongjiang Province of China
Description: Transplanted rice safety evaluation and weed control effect evaluation in rice field:
Rice field soil was loaded into a 1/1,000,000 ha pot. The seeds of Echinochloa crusgalli, Scirpus juncoides, Bidens tripartita L., Sagittaria trifolia, and Monochoria vaginalis were sowed and gently covered with soil, then left to stand still in greenhouse in the state of 0.5-1 cm of water storage. The tuber of Sagittaria trifolia was planted in the next day or 2 days later. It was kept at 3-4 cm of water storage thereafter. The weeds were treated by dripping the WP or SC water diluents prepared according to the common preparation method of the compounds of the present invention with pipette homogeneously to achieve specified effective amount when Echinochloa crusgalli, Scirpus juncoides, Bidens tripartita L., and Monochoria vaginalis reached 0.5 leaf stage and Sagittaria trifolia reached the time point of primary leaf stage.
The fertility condition of Echinochloa crusgalli, Scirpus juncoides, Bidens tripartita L., Sagittaria trifolia and Monochoria vaginalis 14 days after the treatment of the compound of the invention and the fertility condition of rice 21 days after the treatment of the compound of the invention respectively with the naked eye. Evaluate the weed control effect with the above 0-5 activity standard level, many compounds show excellent activity and selectivity. […]

Abutilon theophrasti = experiment: Weeding effect in post-emergence stage; type: in vivo; details: active ingredient 2000 g/ha, 3 weeks after application, fresh weight control rate
How it was run: (§1)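 Pot-grown weeds at the 2-3 leaf stage receive a tower spray of test compound at 2000, 1000, 500, 250 or 125 g/ha, formulated in acetone with Tween 80 and methyl oleate synergist. Fresh weight reduction is rated on an activity scale 3 weeks later.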

[2] = system: Amaranthus retroflexus L.; experiment: Weeding effect in post-emergence stage; type: in vivo; details: active ingredient 2000 g/ha, 3 weeks after application, fresh weight control rate
How it was run: as §1

Chenopodium album = experiment: Weeding effect in post-emergence stage; type: in vivo; details: active ingredient 2000 g/ha, 3 weeks after application, fresh weight control rate
How it was run: as §1

Descurainia sophia = experiment: Weeding effect in post-emergence stage; type: in vivo
How it was run: as §1

Alopecurus aequalis = experiment: Weeding effect in post-emergence stage; type: in vivo; details: active ingredient 250 g/ha
Description: (§2) The activity level criteria for plant damage (i.e., growth control rate) are as follows:
(§3) The above growth control rates are fresh weight control rates.
(§4) Experiment on weeding effect in post-emergence stage: monocotyledonous and dicotyledonous weed seeds and major crop seeds (wheat, corn, rice, soybean, cotton, oilseed rape, millet, sorghum) were placed in plastic pots filled with soil, then covered with 0.5-2 cm of soil, allowed to grow in a good greenhouse environment. After 2 weeks of sowing, the test plants were treated in the 2-3 leaf stage. The tested compounds of the present invention were respectively dissolved in acetone at the dosage of 2000, 1000, 500, 250, 125 g/ha, then added with Tween 80 and 1.5 liter/ha of emulsifiable concentrate of methyl oleate as synergist, diluted with a certain amount of water to obtain a solution with a certain concentration, and sprayed with a spray tower onto the plants. After the application, the plants were cultured for 3 weeks in the greenhouse, and then the experimental results were listed in Table 1.
(§5) In addition, under the active ingredient of 250 g/ha, many compounds also show good crop selectivity and excellent control effect on key weeds.

Alopecurus myosuroides = experiment: Weeding effect in post-emergence stage; type: in vivo; details: active ingredient 250 g/ha
Description: as §2, §3, §4, §5

Beckmannia syzigachne = experiment: Weeding effect in post-emergence stage; type: in vivo; details: active ingredient 250 g/ha
Description: as §2, §3, §4, §5

Sclerochloa dura = experiment: Weeding effect in post-emergence stage; type: in vivo; details: active ingredient 250 g/ha
Description: as §2, §3, §4, §5

Wheat = experiment: Crop selectivity in post-emergence stage; type: in vivo; details: active ingredient 250 g/ha
Description: as §2, §3, §4, §5

Question: `CCOC(=O)c1cnn(C)c1S(=O)(=O)NC(=O)Nc1nc(OC)cc(OC)n1` [Pyrazosulfuron-ethyl, pyrazosulfuron-ethyl] was tested. Which “Response of the rice field weeds to common doses of the herbicide” value [1] did it give?
Answer: resistant

Question: For `Cn1nnnc1NC(=O)c1ccnc(-c2ccc(F)cc2)c1Cl` [Compound 1-17], which “Weeding effect, activity level (growth control rate), Abutilon theophrasti” value (Abutilon theophrasti) is on record?
Answer: 5 (Level 5: growth control rate is above 85%)

Question: What about the “Weeding effect, activity level (growth control rate), Amaranthus retroflexus L.” value [2] of the same molecule?
Answer: 5 (Level 5: growth control rate is above 85%)

Question: What about the “Weeding effect, activity level (growth control rate), Chenopodium album” value (Chenopodium album) of the same molecule?
Answer: 5 (Level 5: growth control rate is above 85%)

Question: And the “Activity level (growth control rate), Descurainia sophia” value (Descurainia sophia; active ingredient 250 g/ha)?
Answer: 5 (Level 5: growth control rate is above 85%)

Question: And the “Weeding effect, activity level (growth control rate), Descurainia sophia” value (Descurainia sophia; active ingredient 2000 g/ha, 3 weeks after application, fresh weight control rate)?
Answer: 5 (Level 5: growth control rate is above 85%)

Question: And the “Activity level (growth control rate), Alopecurus aequalis” value (Alopecurus aequalis)?
Answer: 5 (Level 5: growth control rate is above 85%)

Question: What about the “Activity level (growth control rate), Alopecurus myosuroides” value (Alopecurus myosuroides) of the same molecule?
Answer: 5 (Level 5: growth control rate is above 85%)

Question: What about the “Activity level (growth control rate), Beckmannia syzigachne” value (Beckmannia syzigachne) of the same molecule?
Answer: 5 (Level 5: growth control rate is above 85%)

Question: And the “Activity level (growth control rate), Sclerochloa dura” value (Sclerochloa dura)?
Answer: 5 (Level 5: growth control rate is above 85%)

Question: What about the “Plant damage level (growth control rate), Wheat” value (Wheat) of the same molecule?
Answer: 0 (Level 0: growth control rate is less than 5%)

Question: With `COc1cnc(OC)n2nc(NS(=O)(=O)c3c(OCC(F)F)cccc3C(F)(F)F)nc12` [Penoxsulam, penoxsulam] as the molecule, how does the “Response of the rice field weeds to common doses of the herbicide” value [1] read?
Answer: resistant
